Holding throughout (assay): relative viability (nuclei count vs DMSO), 5 days (fraction); higher = more cells survive
Compound in the assay “VX-702 + Olaparib”: NC(=O)c1ccc(N(C(N)=O)c2c(F)cccc2F)nc1-c1ccc(F)cc1F [VX-702] + O=C(c1cc(Cc2n[nH]c(=O)c3ccccc23)ccc1F)N1CCN(C(=O)C2CC2)CC1 [Olaparib] (partner 8 µM)
An outline of the steps: (§1)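 One day after seeding in 1536-well plates, lung cancer cell lines were dosed by pin tool. Dosing was either single-drug or a fixed anchor-drug dose plus five library-drug doses (not always all listed) in √10 steps. After 5 days, nuclei were stained in one fix-and-stain step and counted on 4× images, and relative viability is the nuclei count of treated wells over that of vehicle wells, given as the median of duplicate plates.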

Compound in the assay “Dabrafenib + Vorinostat”: CC(C)(C)c1nc(-c2cccc(NS(=O)(=O)c3c(F)cccc3F)c2F)c(-c2ccnc(N)n2)s1 [Dabrafenib] + O=C(CCCCCCC(=O)Nc1ccccc1)NO [Vorinostat] (partner 1 µM)
The gist of the method:
as §1

Compound in the assay “Dabrafenib + Palbociclib”: CC(C)(C)c1nc(-c2cccc(NS(=O)(=O)c3c(F)cccc3F)c2F)c(-c2ccnc(N)n2)s1 [Dabrafenib] + CC(=O)c1c(C)c2cnc(Nc3ccc(N4CCNCC4)cn3)nc2n(C2CCCC2)c1=O [Palbociclib] (partner 0.5 µM)
An outline of the steps: as §1

Compound in another assay: CC(C)(C)c1nc(-c2cccc(NS(=O)(=O)c3c(F)cccc3F)c2F)c(-c2ccnc(N)n2)s1 [Dabrafenib]
An outline of the steps:
(§2)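 Lung cancer cell lines were seeded into 1536-well plates, kept overnight at 37 °C and pinned with five library-drug doses (not always all listed) spaced by √10. After 5 days, nuclei were Hoechst-stained, imaged at 4× and counted with MetaXpress. Viability is treated-well nuclei over vehicle-well nuclei, taken as a median across plates. Plates needed control CV below 25% and at least one doubling.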

Compound in another assay: NC(=O)c1ccc(N(C(N)=O)c2c(F)cccc2F)nc1-c1ccc(F)cc1F [VX-702]
The gist of the method:
as §2

As for SW 900, the relative viability was found to be 0.772 in the assay with VX-702 + Olaparib (first compound 0.02 µM); 0.878 with VX-702 + Olaparib (first compound 0.2 µM); 0.887 with VX-702 + Olaparib (first compound 0.6325 µM); 0.893 in the assay with VX-702 + Olaparib (first compound 2 µM); 0.455 with Dabrafenib + Vorinostat (first compound 0.009487 µM); 0.714 in the assay with Dabrafenib + Vorinostat (first compound 0.09487 µM). Besides, the relative viability came to 0.596 in the assay with Dabrafenib + Vorinostat (first compound 0.3 µM); 0.532 with Dabrafenib + Palbociclib (first compound 0.009487 µM); 0.523 with Dabrafenib + Palbociclib (first compound 0.09487 µM); 0.58 with Dabrafenib + Palbociclib (first compound 0.3 µM); 0.84 in the assay with Dabrafenib (0.009487 µM); 0.589 with Dabrafenib (0.03 µM). Further, the relative viability is 0.665 in the assay with Dabrafenib (0.09487 µM); 1.02 in the assay with Dabrafenib (0.3 µM); 0.885 in the assay with VX-702 (0.02 µM); 0.82 with VX-702 (0.2 µM); 0.775 with VX-702 (0.6325 µM); 1.02 in the assay with VX-702 (2 µM).
